# Key:
# [1] = system: individuals with essential tremor; assay: Phase 2 study, Compound 1 60 mg once daily for 28 days: TETRAS ADL total score; format: in vivo, human
# [2] = system: individuals with essential tremor; assay: Phase 2 placebo-controlled study, Compound 1 60 mg once daily for 28 days (reducible to 45 mg or 30 mg): TETRAS performance subscale part 4 upper limb tremor score and tremor amplitude; format: in vivo, human; conditions: for % CFB in Tremor Amplitude: calculated from TETRAS part 4 ratings
# Procedure: 4) Upper limb tremor: Tremor is assessed during three maneuvers: forward horizontal reach posture, lateral “wing beating” posture and finger-nose-finger testing. Each upper limb is assessed and scored individually. The forward horizontal reach posture is held for 5 seconds. The lateral wing beating posture is held for 20 seconds. The finger-nose-finger movement is executed three times. Amplitude assessment should be estimated using the maximally displaced point of the hand at the point of greatest displacement along any single plane. For example, the amplitude of a pure supination-pronation tremor, pivoting around the wrist would be assessed at either the thumb or fifth digit.
# For all three hand tremor ratings: 0=no tremor. 1=tremor is barely visible. 1.5=tremor is visible, but less than 1 cm. 2=tremor is 1-<3 cm amplitude. 2.5=tremor is 3-<5 cm amplitude. 3=tremor is 5-<10 cm amplitude. 3.5=tremor is 10-<20 cm amplitude. 4=tremor is >20 cm amplitude.
# As used herein, “The Essential Tremor Rating Assessment Scale (TETRAS) performance subscale part 4 upper limb tremor total score” refers to the “upper limb tremor” under metric or characteristic 4 of the TETRAS performance subscale set forth above. Each of the three tasks are performed on each limb to give a total of 6 tasks, wherein each task is scored 0, 1, 1.5, 2, 2.5, 3, 3.5, or 4, and each score is added to give a total score no greater than 24.
# [formula] • wherein Tf is a final tremor amplitude; • Ti is an initial tremor amplitude; • Rf is a final tremor rating; • Ri is an initial tremor rating; • α is 0.05; and • N=6, for 6 tasks in TETRAS performance subscale part 4 upper limb tremor total score.
# Participants were 18 to 80 years of age, inclusive, diagnosed of ET of at least 3 years duration with scores of at least 1.5 for each of the six items that comprised the combined total upper limb TETRAS (total performance subscale part 4) with the total score for the dominant upper limb (the sum of the 3 items for either the right or left upper limb, whichever is dominant) being at least 5.5, at both Screening and predose on Day 1.
# Groups received either Compound 1 as orally administered tablet(s) (each tablet providing 15 mg of Compound 1) or matching placebo at 1:1 ratio. Tablets were formulated as immediate release, white to off-white, round, film-coated tablets containing 15 mg of Compound 1, filler, disintegrant, lubricant, and glidant, wherein the tablets were formed using direct compression and coated with Opadry® II white as the film coating.
# Participants were randomized to receive Compound 1 60 mg or placebo once daily in the morning on a 1:1 basis. If participants reported a TEAE considered by investigator to be related to Compound 1 and not tolerable, investigator might reduce the dose of Compound 1 from 60 mg in 15 mg decrements (i.e., 60 mg, to 45 mg, to 30 mg), as medically appropriate. If intolerable TEAEs persist at the 30 mg dose, Compound 1 was permanently stopped.
# This study included a Screening Period of up to 28 days, a 29-day treatment period consisting of 28 days of dosing with the end of treatment visit intended to be on Day 29 at trough, and a 14-day follow-up period relative to final dose. Study patients were not taking other medications for essential tremor during the 28-day treatment period.
# The model included the change from baseline at each visit as the dependent variable, treatment, baseline TETRAS performance subscale part 4 upper limb tremor score, assessment timepoint, and timepoint-by-treatment as explanatory variables. All explanatory variables were treated as a fixed effect. The main comparison was (difference in least mean square [LSMEAN]) between Compound 1 and placebo at the 29-day timepoint.
# Model-based point estimates (i.e., LSMEAN, 95% confidence intervals, and p-values) were reported where applicable. An unstructured covariance structure was used to model the within-subject errors. […]
# [3] = Baseline TETRAS Upper Limb Part 4 < 12, Day 29
# [4] = Baseline TETRAS Upper Limb Part 4 ≥ 12, Day 29
# [5] = Baseline part 4 upper limb total score ≥ 12, Day 8
# [6] = Baseline part 4 upper limb total score ≥ 12, Day 15, 5 hr postdose
# [7] = Baseline part 4 upper limb total score ≥ 12, Day 15, 8 hr postdose
# [8] = Baseline part 4 upper limb total score ≥ 12, Day 15, predose
# [9] = Baseline part 4 upper limb total score ≥ 12, Day 22
# [10] = Baseline part 4 upper limb total score ≥ 12, Day 42
# [11] = Full Analysis Set, Day 15, 5 hr postdose
compound,measurement,setting,value
COC[C@@]1(O)CC[C@H]2[C@@H](CC[C@@H]3[C@@H]2CC[C@]2(C)[C@@H](C(=O)Cn4nnc(C)n4)CC[C@@H]32)C1 [Compound 1],LSMean Difference (CI) vs placebo in CFB in TETRAS ADL total score,"[1]; Baseline TETRAS ADL ≥ 28, Day 29",−1.47
same,LSMean difference vs placebo in change from baseline in TETRAS ADL total score,"[1]; Full Analysis Set, Day 8",−2.80
same,"Change from baseline in TETRAS ADL subscale total score compared with placebo, in words","[1]; Full Analysis Set, Day 29",numerically superior to placebo but failed to reach statistical significance
same,LSMean difference vs placebo in change from baseline in TETRAS ADL total score,"[1]; Full Analysis Set, Day 29","−1.37 (−3.81, 1.08)"
same,LSMean (SE) CFB in TETRAS performance subscale part 4 upper limb tremor total score,[2]; [3],−1.06
same,LSMean Difference (CI) vs placebo in CFB in TETRAS performance subscale part 4 upper limb tremor total score,[2]; [3],0.45
same,Mean (SD) % CFB in TETRAS performance subscale part 4 upper limb tremor total score,[2]; [3],−7.76%
same,% CFB in Tremor Amplitude,[2]; [3],−18.40%
same,"Frequency of % CFB in tremor amplitude category 15-<30%, number of participants",[2]; [4],6
same,"Frequency of % CFB in tremor amplitude category 15-<30%, percent of participants",[2]; [4],(28.6)
same,"Frequency of % CFB in tremor amplitude category 30-<50%, number of participants",[2]; [4],2
same,"Frequency of % CFB in tremor amplitude category 30-<50%, percent of participants",[2]; [4],(9.5)
same,"Frequency of % CFB in tremor amplitude category 50-<75%, number of participants",[2]; [4],2
same,"Frequency of % CFB in tremor amplitude category 50-<75%, percent of participants",[2]; [4],(9.5)
same,"Frequency of % CFB in tremor amplitude category <15%, number of participants",[2]; [4],11
same,"Frequency of % CFB in tremor amplitude category <15%, percent of participants",[2]; [4],(52.4)
same,"Frequency of % CFB in tremor amplitude category >75%, number of participants",[2]; [4],0
same,Mean (SD) % CFB in TETRAS performance subscale part 4 upper limb tremor total score,[2]; [4],−20.47%
same,% CFB in Tremor Amplitude,[2]; [4],−41.00%
same,LSMean difference vs placebo in change from baseline in TETRAS performance subscale part 4 upper limb tremor total score,[2]; [5],−1.33
same,Model-based LSMean (SE) change from baseline in TETRAS performance subscale part 4 upper limb tremor total score,[2]; [5],−1.99 (0.340)
same,LSMean difference vs placebo in change from baseline in TETRAS performance subscale part 4 upper limb tremor total score,[2]; [6],−1.60
same,Model-based LSMean (SE) change from baseline in TETRAS performance subscale part 4 upper limb tremor total score,[2]; [6],−3.12 (0.449)
same,LSMean difference vs placebo in change from baseline in TETRAS performance subscale part 4 upper limb tremor total score,[2]; [7],−1.38
same,Model-based LSMean (SE) change from baseline in TETRAS performance subscale part 4 upper limb tremor total score,[2]; [7],−2.84 (0.445)
same,LSMean difference vs placebo in change from baseline in TETRAS performance subscale part 4 upper limb tremor total score,[2]; [8],−1.37
same,Model-based LSMean (SE) change from baseline in TETRAS performance subscale part 4 upper limb tremor total score,[2]; [8],−2.15 (0.371)
same,LSMean difference vs placebo in change from baseline in TETRAS performance subscale part 4 upper limb tremor total score,[2]; [9],−1.48
same,Model-based LSMean (SE) change from baseline in TETRAS performance subscale part 4 upper limb tremor total score,[2]; [9],−2.56 (0.383)
same,LSMean difference vs placebo in change from baseline in TETRAS performance subscale part 4 upper limb tremor total score,"[2]; Baseline part 4 upper limb total score ≥ 12, Day 29",−1.70
same,LSMean difference vs placebo in change from baseline in TETRAS performance subscale part 4 upper limb tremor total score,[2]; [10],0.22
same,Model-based LSMean (SE) change from baseline in TETRAS performance subscale part 4 upper limb tremor total score,[2]; [10],−1.59 (0.475)
same,Percent reduction from baseline in tremor amplitude,[2]; Full Analysis Set,36
same,LSMean difference vs placebo in change from baseline in TETRAS performance subscale part 4 upper limb tremor total score,"[2]; Full Analysis Set, Day 8",−0.81
same,Model-based LSMean (SE) change from baseline in TETRAS performance subscale part 4 upper limb tremor total score,"[2]; Full Analysis Set, Day 8",−1.67 (0.287)
same,LSMean difference vs placebo in change from baseline in TETRAS performance subscale part 4 upper limb tremor total score,[2]; [11],−0.40
same,Model-based LSMean (SE) change from baseline in TETRAS performance subscale part 4 upper limb tremor total score,[2]; [11],−2.64 (0.452)

# Reference: patent US20240238314A1, “TREATMENT OF ESSENTIAL TREMOR” (Sage Therapeutics, Inc., priority 2021, published 2024)
